# Data taken from patent publication EP0691985B1, “[…]” (MERRELL PHARMACEUTICALS INC., priority 1993, dated 1994).
# Experiments:
# ET receptors = experiment: Effect of ET-l on phosphatidyl inositol turnover (IPl formation) in rat brain slices, counter-test; format: cell-based; conditions: rat striatum slices, ETl 10^-6M
# Description: The buffer was changed every 15 minutes.
# [1] = tested on: Endothelin Converting Enzyme (ECE); conditions: read-out: IC50 (concentration inhibiting 50% of the effect of pro-ETl 10^-6M); rat striatum slices; pro-ET-l 10^-6M; [3H]-IPl accumulation; determined graphically
# Description: In vitro Endothelin Converting Enzyme (ECE) assay via IPl formation in rat brain slices. This assay measures the enzymatic activity responsible for the generation of functional ET-l from pro-ET-l by measuring the stimulation of phosphatidyl inositol turnover as a marker of ET-l effects:
# The precursor of ET-l, i.e., proendothelin-l (pro-ET-l), is unable to stimulate the phosphatidyl inositol turnover unless it is cleaved by a specific phosphoramidon sensitive protease, i.e., endothelin converting enzyme (ECE). […] For this assay, an adaptation of the procedure of Brown et al., J. Neurochem., 42:1379, 1984, was used.
# The exact concentration of these solutions was checked by absorbance spectrophotometry at 280 nm, using the equation C = A / L ε280 [formula] (with C the concentration of the peptide in solution, A the absorbance measured, L the optical path length of the solution and ε280 the extinction coefficient of the peptide in solution (8370 and 7025 M^-1cm^-1 for pro-ET-l and ET-l, respectively)]. The stock solutions were then aliquoted, lyophilized and stored at -20°C. The peptides were redissolved and diluted in water on the day of the experiment (peptides for other tests also prepared by this method ). […]
# In these conditions the stimulation of phosphatidyl inositol turnover by pro-ET-l can be assessed by measuring the amount of accumulated [^3H]-IPl.
smiles,measurement,setting,value
CC(C)C[C@H](NP(=O)(O)O[C@@H]1O[C@@H](C)[C@H](O)[C@@H](O)[C@H]1O)C(=O)N[C@@H](Cc1c[nH]c2ccccc12)C(=O)O [phosphoramidon],IC50,"ET receptors; [3H]-IPl accumulation, determined graphically, read-out: RC50 (concentration reducing 50% of the effect of ETl 10^-6M)",> 30 µM
same,% of maximal reduction observed,ET receptors; recorded when RC50 >30 µM (up to 3 × 10^-5M),75 ± 9%
same,IC50,[1],6.4 ± 1.1 µM
